Laboratory results published in ChEMBL document CHEMBL4699553, “Synthesis and biological evaluation of chalcone derivatives as neuroprotective agents against glutamate-induced HT22 mouse hippocampal neuronal cell death” (Bioorg Med Chem Lett, 2020).
Activity calls are given as the source filed them. No cut-off for these calls is given here.

Columns and labels:
[1] = test system: HT-22; test: Neuroprotective activity against glutamate-induced cell death in mouse HT22 cells assessed as increase in cell viability at 0.15 to 38.46 uM incubated for 12 hrs by calcein-AM dye and propidium iodide staining based analysis; format: functional; conditions: dose microM 0.15-38.46, time 12.0 hrs
[2] = Antioxidant activity assessed as DPPH radical scavenging activity; format: functional
[3] = test system: HT-22; test: Neuroprotection against glutamate-induced apoptosis in mouse HT22 cells assessed as increase in bcl2 protein level at 1.4 to 12.8 uM by Western blot analysis; format: functional, cell-based; conditions: dose microM 1.4-12.8
[4] = test system: HT-22; test: Neuroprotective activity against glutamate-induced cell death in mouse HT22 cells assessed as live cells at 12.8 uM by Annexin-V FITC and propidium iodide staining based flow cytometric analysis (reference value: 15.03 %); format: functional
[5] = test system: HT-22; test: Neuroprotection against glutamate-induced apoptosis in mouse HT22 cells assessed as decrease in translocation of AIF to nucleus at 12.8 uM by immunostaining analysis; format: functional, cell-based
[6] = test system: Caenorhabditis elegans; test: Neuroprotective activity against 6-OHDA induced neuronal dysfunction in Caenorhabditis elegans N2 assessed as increase in number of body bending at 100 uM incubated for 1 hr and measured for 20 sec; format: functional, organism-based
[7] = test system: HT-22; test: Neuroprotection against glutamate-induced Ca2+ homeostasis disruption in mouse HT22 cells assessed as reduction in intracellular Ca2+ uptake at 1.4 to 12.8 uM by Fluo3-AM staining based fluorescent microscopic method; format: functional, cell-based; conditions: dose microM 1.4-12.8
[8] = test system: HT-22; test: Neuroprotective activity against glutamate-induced cell death in mouse HT22 cells assessed as late apoptotic cells at 12.8 uM by Annexin-V FITC and propidium iodide staining based flow cytometric analysis (reference value: 4.62 %); format: functional
[9] = test system: HT-22; test: Inhibition of glutamate-induced ERK activation in mouse HT22 cells assessed as reduction in phosphorylated ERK protein level by Western blot analysis; format: cell-based; conditions: dose microM 1.4-12.8
[10] = test system: HT-22; test: Neuroprotective activity against glutamate-induced cell death in mouse HT22 cells assessed as early apoptotic cells at 12.8 uM by Annexin-V FITC and propidium iodide staining based flow cytometric analysis (reference value: 79.84 %); format: functional
[11] = test system: HT-22; test: Neuroprotective activity against glutamate-induced cell death in mouse HT22 cells assessed as cell viability at 12.8 uM incubated for 12 hrs by calcein AM dye and propidium iodide staining based analysis (reference value: 50%); format: functional; conditions: read-out: Activity
[12] = test system: HT-22; test: Induction of apoptosis in mouse HT22 cells assessed as late apoptotic cells at 12.8 uM by Annexin-V FITC and propidium iodide staining based flow cytometric analysis (reference value: 7.05 %); format: cell-based; conditions: ht-22, 12.8 µM
[13] = test system: HT-22; test: Induction of apoptosis in mouse HT22 cells assessed as necrotic cells at 12.8 uM by Annexin-V FITC and propidium iodide staining based flow cytometric analysis (reference value: 2.53 %); format: cell-based; conditions: ht-22, 12.8 µM
[14] = test system: HT-22; test: Inhibition of glutamate-induced JNK activation in mouse HT22 cells assessed as reduction in phosphorylated JNK protein level by Western blot analysis; format: cell-based; conditions: dose microM 1.4-12.8
[15] = target: MAP kinase p38 (Mus musculus) (UniProt P47811+O08911+Q9WUI1+Q9Z1B7); test: Inhibition of glutamate-induced p38 MAPK activation in mouse HT22 cells assessed as reduction in phosphorylated p38 MAPK protein level by Western blot analysis; format: cell-based; conditions: HT-22, dose microM 1.4-12.8
[16] = test system: Hippocampus; test: Inhibition of erastin induced ferroptotic-cell death in rat hippocampal culture by propidium iodide uptake based fluorescence analysis; format: functional, tissue-based
[17] = Induction of apoptosis in mouse HT22 cells assessed as viable cells at 12.8 uM by Annexin-V FITC and propidium iodide staining based flow cytometric analysis (reference value: 87.05 %); format: cell-based, HT-22; conditions: read-out: Activity
[18] = test system: HT-22; test: Neuroprotective activity against glutamate-induced oxidative stress in mouse HT22 cells assessed as reduction in intracellular ROS accumulation at 12.8 uM by DCF-DA staining based fluorescence assay; format: functional, cell-based
[19] = test system: HT-22; test: Induction of apoptosis in mouse HT22 cells assessed as early apoptotic cells at 12.8 uM by Annexin-V FITC and propidium iodide staining based flow cytometric analysis (reference value: 3.37 %); format: cell-based; conditions: ht-22, 12.8 µM
[20] = target: T1, Nuclear factor erythroid 2-related factor 2 (Homo sapiens) (UniProt Q16236); test: Activation of Nrf2 in human HepG2 cells co-transfected with ARE luciferase gene assessed as increase in ARE-driven luciferase activity by luciferase reporter gene assay; format: cell-based; conditions: filed as activator
T1 sequence (whole entry): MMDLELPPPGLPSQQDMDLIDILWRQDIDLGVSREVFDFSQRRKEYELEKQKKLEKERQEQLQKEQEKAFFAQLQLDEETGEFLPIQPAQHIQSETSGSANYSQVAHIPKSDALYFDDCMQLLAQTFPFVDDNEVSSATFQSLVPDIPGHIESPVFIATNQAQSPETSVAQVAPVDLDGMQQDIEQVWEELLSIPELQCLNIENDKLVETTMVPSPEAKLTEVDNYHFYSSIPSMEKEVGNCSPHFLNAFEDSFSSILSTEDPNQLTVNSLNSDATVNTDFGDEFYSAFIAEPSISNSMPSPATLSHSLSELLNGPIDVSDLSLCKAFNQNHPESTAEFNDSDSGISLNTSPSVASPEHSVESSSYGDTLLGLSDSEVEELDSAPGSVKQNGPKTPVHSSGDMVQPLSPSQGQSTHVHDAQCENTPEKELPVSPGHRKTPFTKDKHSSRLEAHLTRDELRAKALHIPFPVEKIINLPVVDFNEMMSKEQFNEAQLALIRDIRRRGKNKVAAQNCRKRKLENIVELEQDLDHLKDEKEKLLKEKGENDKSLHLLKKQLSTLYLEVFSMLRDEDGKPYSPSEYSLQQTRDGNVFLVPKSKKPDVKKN

[21] = test system: HT-22; test: Neuroprotection against glutamate-induced apoptosis in mouse HT22 cells assessed as decrease in translocation of AIF to nucleus at 12.8 uM by Western blot analysis; format: functional, cell-based
[22] = test system: HT-22; test: Neuroprotection against glutamate-induced apoptosis in mouse HT22 cells assessed as reduction in bax protein level at 1.4 to 12.8 uM by Western blot analysis; format: functional, cell-based; conditions: dose microM 1.4-12.8
[23] = test system: HT-22; test: Neuroprotective activity against glutamate-induced cell death in mouse HT22 cells assessed as necrotic cells at 12.8 uM by Annexin-V FITC and propidium iodide staining based flow cytometric analysis (reference value: 0.51 %); format: functional

COc1cc(OC)c(/C=C2\CCc3ccc(OC)cc3C2=O)c(OC)c1
Activity [1]: Active

COc1ccc2c(c1)C(=O)/C(=C/c1cccc(O)c1)CC2
Activity [1]: inactive

COc1cccc(/C=C2\CCc3ccc(OC)cc3C2=O)c1
Activity [1]: Active

COc1ccc2c(c1)C(=O)/C(=C/c1c[nH]c3ccccc13)CC2
Activity [2]: inactive | Activity [3]: Active | Activity [4]: 91.37% | Activity [5]: Active | Activity [6]: Active | Activity [7]: Active | Activity [8]: 5.92% | inhibition [9]: Dose-dependent effect | Activity [10]: 1.03% | viability at 12.8 µM [11]: > 80% | Activity [12]: 8.72% | Activity [13]: 2.08% | inhibition [14]: Dose-dependent effect | inhibition [15]: Dose-dependent effect | inhibition [16]: inactive | viability at 12.8 µM [17]: 88.2% | Activity [18]: Active | Activity [19]: 0.95% | Activity [20]: Active | Activity [21]: Active | Activity [22]: Active | Activity [23]: 1.68%

COc1ccc2c(c1)C(=O)/C(=C/c1ccc(OC)c(OC)c1)CC2
Activity [1]: Active

COc1ccc2c(c1)C(=O)/C(=C/c1cc(OC)c(OC)c(OC)c1)CC2
Activity [1]: Active

COc1ccc2c(c1)C(=O)/C(=C/c1cc(OC)c(Br)c(OC)c1)CC2
Activity [1]: Active

COc1ccc2c(c1)C(=O)/C(=C/c1ccc(N(C)C)cc1)CC2
Activity [1]: Active

COc1ccc2c(c1)C(=O)/C(=C/c1ccc(O)cc1)CC2
Activity [1]: inactive

COc1ccc2c(c1)C(=O)/C(=C/c1cc(OC)c(OC)cc1Br)CC2
Activity [1]: Active
